Values joined by “and” are separate entries in the source; they are usually repeats but may differ in a detail not shown here. Identical values can stand only once. Marks after values point to notes of the source that are not given here.
How the values were obtained:
[1] = tested on: naïve WT C57BL/6 mice; experiment: Hypoferremia in naïve mice; type: in vivo, mouse; conditions: Mus musculus, po, 3 h, relative to vehicle, read-out: Serum Iron Reduction at 3 h (%); for inhibition in vivo at 10 mg/kg: Dose 10 mg/kg p.o.; for inhibition in vivo at 30 mg/kg: Dose 30 mg/kg p.o.; for inhibition in vivo at 100 mg/kg: Dose 100 mg/kg p.o.
Method: Injection of synthetic hepcidin in wild-type (WT) naïve mice results in a reduction of serum iron levels (40-50% from the vehicle control) with a maximal effect at 3-4 hours post treatment (Rivera, 2005; FIG. 12A).
Female C57BL/6 mice (Janvier, France) at age of 9 weeks are fed a standard diet (Harlan Provimi Kliba 3436) and treated per os (p.o.) with compounds or the corresponding amount of vehicle at a volume of 10 ml/kg body weight. Fpn inhibitors are formulated in 0.5% methylcellulose/water or 20% cremophor EL/water and dosed p.o. in mice at 10, 30 or 100 mg/kg body weight. Three hours later, mice are pre-terminally anesthetized in isoflurane chambers and blood is collected by retro-orbital bleeding. Mice are sacrificed by cervical dislocation and spleens, livers and duodena were harvested and used for biomarker analysis. All experiments are conducted in compliance with the license approved by the responsible veterinarian authorities. Serum is isolated by centrifugation of blood into gel-containing microtainers and serum iron is determined by the MULTIGENT Iron assay (Abbott Diagnostics, 6K95). Eight mice per group are used and one-way ANOVA with Bonferroni's multiple comparison test is performed to analyze the statistical differences between the experimental groups.
Table 6 Efficacy of Fpn inhibitors tested in the naïve mouse hypoferremia model. Serum iron reduction induced by selected ferroportin inhibitors dosed p.o. in naïve WT C57BL/6 mice at 10, 30 and 100 mg/kg. Relative serum iron reduction at 3 h after dosing was calculated by subtracting the average of serum iron values of animals dosed with the Fpn inhibitor from that of vehicle-treated animals. The difference in average serum iron values between vehicle and compound treated groups was then divided by the average of serum iron of the vehicle control group and listed as percentage.

[2] = tested on: beta2-microglobulin deficient (b2m−/−) mice; experiment: Correction of hyperferremia in beta2-microglobulin deficient mice; type: in vivo, mouse
Method: Female and male homozygous b2m−/− mice are supplied from Jackson Laboratories (B6.129P2-B2mtm1Unc/J, Stock Number: 002087) at age of 6 to 7 weeks and fed standard diet (Harlan Provimi Kliba 3436) ad libitum. Age and gender matched WT C57BL/6 mice are supplied by Charles River. To study the acute effects of ferroportin (Fpn) inhibitors in iron overload b2m−/− mice are treated with compounds or the corresponding amount of vehicle at a volume of 10 ml/kg body weight. Fpn inhibitor compounds are formulated in 0.5% methylcellulose/water or 20% cremophor EL/water and dosed p.o. in mice at 50 mg/kg body weight. WT controls received only vehicle. Three hours later, mice are pre-terminally anesthetized in isoflurane chambers and blood is collected by retro-orbital bleeding. Mice are sacrificed by cervical dislocation and spleens, livers and duodena are harvested and used for biomarker analysis. All experiments are performed in compliance with license approved by the responsible veterinarian authorities. Serum is isolated by centrifugation of blood into gel-containing microtainers (BD Biosciences) and serum iron is determined by the MULTIGENT Iron assay (Abbott Diagnostics, Cat. 6K95). Four to nine mice per group are used and one-way ANOVA with Bonferroni's multiple comparison test is applied to analyze the statistical differences between the experimental groups.
Blood is collected 1 (#) or 3 (##) hours after oral administration of the indicated doses of Fpn inhibitors to beta2-microglobulin deficient mice and serum iron concentrations are measured. Relative reduction (%) of serum iron levels are shown, which were calculated by subtracting the average of serum iron values of animals dosed with the Fpn inhibitor from that of vehicle-treated animals. The difference in average serum iron values between vehicle and compound treated groups was then divided by the average of serum iron of the vehicle control group and listed as percentage. Values are listed separately for female (♀) and male (♂) animals, because a marked sex-dependent difference in efficacy was noted. Statistically significant (2-way ANOVA with Bonferroni post test) differences observed between compound-treated and vehicle-treated groups are indicated (*** p<0.001; ** p<0.01, p<0.05).

[3] = female ♀, 20 mg/kg oral, blood collection time not marked
[4] = female ♀, 60 mg/kg oral, blood collection time not marked
[5] = male ♂, 20 mg/kg oral, blood collection time not marked
[6] = male ♂, 60 mg/kg oral, blood collection time not marked

SMILES | inhibition in vivo at 10 mg/kg [1] [%] | inhibition in vivo at 30 mg/kg [1] [%] | inhibition in vivo at 100 mg/kg [1] [%] | Correction of elevated serum iron, in words ([2]; b2m−/− mice, 50 mg/kg p.o., 3 h) | Serum Iron Reduction (%) ([2]; female ♀, 20 mg/kg oral, 1 hour (#)) | Serum Iron Reduction (%) ([2]; female ♀, 60 mg/kg oral, 1 hour (#), 60 mg/kg) | Serum Iron Reduction (%) ([2]; male ♂, 20 mg/kg oral, 1 hour (#)) | Serum Iron Reduction (%) ([2]; male ♂, 60 mg/kg oral, 1 hour (#), 60 mg/kg) | Serum Iron Reduction (%) [2, 3] | Serum Iron Reduction (%) [2, 4] | Serum Iron Reduction (%) [2, 5] | Serum Iron Reduction (%) [2, 6]
O=C(NCc1ncccc1F)c1csc(CCNCc2nc3ccccc3[nH]2)n1 [Example Compound No. 40] | 10 | 30 | 50 | corrected the elevated serum iron to the levels observed in WT controls | 0 | 13% and 10% | 35** % | 32** % and 58** % | – | – | – | –
O=C(NCc1ncccc1F)c1cnc(C2CN(CCc3nc4ccccc4[nH]3)C2)o1 [Example Compound No. 2] | 9 | 26 | 50 | – | – | – | – | – | 27% | 57** % | 29% | 66** %
O=C(NCc1ncccc1F)c1cnc(CCNCCc2nc3ccccc3[nH]2)o1 [Example Compound No. 1] | 0 | 28 | 51 | – | – | – | – | – | 31** % | 52** % | 31** % | 59** %

From patent publication US11129820B2, “Ferroportin-inhibitor salts” (Vifor (International) AG, priority 2017, dated 2021)
